Where no end group is shown, it is not given here.
Experiments:
Experiment in all cases: biochemical
Type in all cases: binding
[1] = biological target: DRB4*0101 (Homo sapiens, UniProt P01903+P13762, G164S)
[2] = biological target: DRB5*0101 (Homo sapiens, UniProt P01903+Q30154)
[3] = biological target: DRB3*0101 (Homo sapiens, UniProt P01903+P79483)

Row | Compound | IC50 [1] | IC50 [2] | IC50 [3]
1 | CSCC[C@H](NC(=O)[C@H](Cc1ccc(O)cc1)NC(=O)[C@H](CCCNC(=N)N)NC(=O)[C@H](CC(C)C)NC(=O)[C@@H]1CCCN1C(=O)[C@@H]1CCCN1C(=O)[C@H](CC(C)C)NC(=O)[C@@H](NC(=O)[C@H](CS)NC(=O)[C@H](CO)NC(=O)[C@H](CCCNC(=N)N)NC(=O)[C@@H](N)CS)[C@@H](C)O)C(=O)NCC(=O)N[C@@H](CCC(=O)O)C(=O)N[C@@H](CC(=O)O)C(=O)O [NS1 313-327] | 503 nM | 2270 nM | –
2 | CC[C@H](C)[C@H](NC(=O)[C@H](CCSC)NC(=O)[C@H](CO)NC(=O)[C@H](CO)NC(=O)[C@H](C)NC(=O)[C@H](CO)NC(=O)CNC(=O)[C@@H](NC(=O)[C@H](C)NC(=O)[C@H](CCCCN)NC(=O)[C@@H](NC(=O)[C@H](CCC(=O)O)NC(=O)[C@H](Cc1ccc(O)cc1)NC(=O)[C@H](CO)NC(=O)CN)C(C)C)[C@@H](C)O)C(=O)N[C@@H](CC(N)=O)C(=O)NCC(=O)O [NS5 306-322] | 5550 nM | – | 2290 nM
3 | CC[C@H](C)[C@H](NC(=O)[C@@H](NC(=O)[C@H](CC(C)C)NC(=O)[C@H](CC(N)=O)NC(=O)[C@H](CCCNC(=N)N)NC(=O)[C@H](CCCCN)NC(=O)[C@@H](N)CCCCN)[C@@H](C)O)C(=O)N[C@@H](CCSC)C(=O)N[C@@H](CC(=O)O)C(=O)N[C@@H](CC(C)C)C(=O)N[C@@H](Cc1c[nH]cn1)C(=O)N1CCC[C@H]1C(=O)NCC(=O)N[C@@H](CO)C(=O)NCC(=O)O [NS3 185-199] | 7.6 nM | – | 1460 nM
4 | CC[C@H](C)[C@H](NC(=O)[C@H](CC(C)C)NC(=O)[C@H](CO)NC(=O)[C@H](C)NC(=O)[C@H](CCCCN)NC(=O)[C@H](CCC(=O)O)NC(=O)[C@H](CC(C)C)NC(=O)[C@H](CCCCN)NC(=O)[C@H](Cc1c[nH]c2ccccc12)NC(=O)[C@@H](N)CO)C(=O)N[C@@H](CCC(=O)O)C(=O)N[C@H](C(=O)N[C@@H](CCCCN)C(=O)N[C@H](C(=O)N[C@@H](CS)C(=O)O)[C@@H](C)O)C(C)C [NS1 209-223] | 5020 nM | 1180 nM | –
5 | CC[C@H](C)[C@H](NC(=O)[C@H](C)NC(=O)[C@H](CCSC)NC(=O)[C@H](CCCNC(=N)N)NC(=O)[C@H](CCCCN)NC(=O)[C@H](CC(C)C)NC(=O)[C@H](CCCNC(=N)N)NC(=O)[C@H](CCC(=O)O)NC(=O)[C@@H](N)C(C)C)C(=O)N[C@@H](CO)C(=O)NCC(=O)N[C@@H](CC(=O)O)C(=O)N[C@@H](CC(=O)O)C(=O)N[C@@H](CS)C(=O)N[C@H](C(=O)N[C@H](C(=O)N[C@@H](CCCCN)C(=O)O)C(C)C)C(C)C [NS5 652-668] | 618 nM | – | –
6 | CC(C)C[C@H](NC(=O)[C@H](CCC(=O)O)NC(=O)[C@H](CC(C)C)NC(=O)[C@H](CCCCN)NC(=O)CNC(=O)[C@H](CC(C)C)NC(=O)[C@H](Cc1c[nH]cn1)NC(=O)[C@H](Cc1c[nH]c2ccccc12)NC(=O)[C@@H]1CCCN1C(=O)CNC(=O)[C@H](C)NC(=O)[C@@H](NC(=O)[C@H](CCC(N)=O)NC(=O)[C@@H](NC(=O)[C@@H](N)Cc1c[nH]cn1)[C@@H](C)O)[C@@H](C)O)C(=O)O [NS1 261-275] | 666 nM | – | 1330 nM
7 | CC[C@H](C)[C@H](NC(=O)[C@H](CC(=O)O)NC(=O)[C@H](CCSC)NC(=O)[C@@H](NC(=O)[C@@H](NC(=O)CNC(=O)[C@H](CCCCN)NC(=O)[C@@H]1CCCN1C(=O)[C@@H](NC(=O)[C@@H]1CCCN1)[C@@H](C)O)[C@@H](C)O)C(C)C)C(=O)N[C@H](C(=O)N[C@@H](CO)C(=O)N[C@@H](CCCNC(=N)N)C(=O)N[C@@H](CCCCN)C(=O)N[C@@H](CC(=O)O)C(=O)N[C@@H](CCC(N)=O)C(=O)N[C@@H](CCCNC(=N)N)C(=O)O)[C@@H](C)CC [NS5 582-598] | 1540 nM | – | 7220 nM
8 | CC[C@H](C)[C@H](NC(=O)[C@H](CCC(=O)O)NC(=O)CNC(=O)[C@H](CCCNC(=N)N)NC(=O)[C@H](CCCCN)NC(=O)[C@H](CC(C)C)NC(=O)CNC(=O)[C@H](CCC(=O)O)NC(=O)[C@H](CCCCN)NC(=O)[C@H](C)NC(=O)[C@H](CCC(=O)O)NC(=O)[C@@H](N)[C@@H](C)O)C(=O)N[C@H](C(=O)N[C@@H](Cc1c[nH]cn1)C(=O)N[C@@H](Cc1c[nH]cn1)C(=O)N[C@@H](C)C(=O)N[C@H](C(=O)O)C(C)C)[C@@H](C)O [NS5 39-55] | 563 nM | – | 749 nM
9 | CC[C@H](C)[C@H](NC(=O)[C@H](C)NC(=O)[C@@H](NC(=O)[C@H](C)NC(=O)[C@H](CC(C)C)NC(=O)[C@H](CCCNC(=N)N)NC(=O)[C@H](CCCCN)NC(=O)[C@@H]1CCCN1C(=O)[C@H](CO)NC(=O)[C@H](CC(=O)O)NC(=O)[C@H](C)NC(=O)[C@H](CCC(N)=O)NC(=O)[C@H](Cc1ccccc1)NC(=O)[C@@H](N)CCCCN)[C@@H](C)O)C(=O)N[C@@H](C)C(=O)O [NS1 33-47] | 916 nM | – | 22 nM
10 | EITPQASTTEAILPE [Envelope 161-175] | 16600 nM | – | –
11 | CC[C@H](C)[C@H](NC(=O)[C@H](Cc1c[nH]c2ccccc12)NC(=O)[C@H](CCC(=O)O)NC(=O)[C@@H](N)CC(N)=O)C(=O)N[C@H](C(=O)N[C@@H](CC(=O)O)C(=O)N[C@@H](Cc1ccccc1)C(=O)N[C@@H](C)C(=O)NCC(=O)N[C@@H](CCCCN)C(=O)N[C@H](C(=O)N[C@H](C(=O)N[C@@H](Cc1c[nH]c2ccccc12)C(=O)N[C@@H](Cc1ccccc1)C(=O)N[C@H](C(=O)O)C(C)C)C(C)C)[C@@H](C)O)[C@@H](C)O [NS3 349-363] | 5420 nM | – | 221 nM
12 | CC[C@H](C)[C@H](NC(=O)[C@H](CCC(=O)O)NC(=O)[C@H](C)NC(=O)[C@@H](NC(=O)[C@@H](NC(=O)CNC(=O)[C@@H](N)CCC(N)=O)C(C)C)[C@@H](C)O)C(=O)N[C@H](C(=O)N1CCC[C@H]1C(=O)N[C@@H](CCC(N)=O)C(=O)N[C@@H](C)C(=O)N[C@@H](CO)C(=O)N[C@H](C(=O)N[C@H](C(=O)N[C@@H](CCC(=O)O)C(=O)O)[C@@H](C)O)[C@@H](C)O)[C@@H](C)O [Envelope 156-170] | 707 nM | – | –
13 | C[C@H](NC(=O)[C@H](Cc1c[nH]c2ccccc12)NC(=O)[C@@H](NC(=O)[C@H](CCCCN)NC(=O)[C@H](Cc1ccc(O)cc1)NC(=O)[C@@H]1CCCN1C(=O)[C@H](CC(N)=O)NC(=O)[C@H](CCC(=O)O)NC(=O)[C@H](CC(=O)O)NC(=O)[C@H](CC(=O)O)NC(=O)[C@H](Cc1ccc(O)cc1)NC(=O)[C@H](Cc1c[nH]cn1)NC(=O)[C@H](Cc1c[nH]c2ccccc12)NC(=O)[C@@H](N)[C@@H](C)O)[C@@H](C)O)C(=O)N[C@@H](Cc1ccc(O)cc1)C(=O)N[C@@H](Cc1c[nH]cn1)C(=O)NCC(=O)O [NS5 290-306] | 15600 nM | – | –
14 | CC[C@H](C)[C@H](NC(=O)[C@@H](NC(=O)[C@H](CC(C)C)NC(=O)[C@H](CC(N)=O)NC(=O)[C@H](CCCNC(=N)N)NC(=O)[C@H](CCCCN)NC(=O)[C@H](CCCCN)NC(=O)[C@H](Cc1ccccc1)NC(=O)[C@H](CCSC)NC(=O)[C@H](CCC(=O)O)NC(=O)[C@@H](N)CCC(=O)O)[C@@H](C)O)C(=O)N[C@@H](CCSC)C(=O)N[C@@H](CC(=O)O)C(=O)N[C@@H](CC(C)C)C(=O)N[C@@H](Cc1c[nH]cn1)C(=O)O [NS3 181-195] | 68 nM | – | 1260 nM
15 | CC[C@H](C)[C@H](NC(=O)[C@H](Cc1c[nH]c2ccccc12)NC(=O)[C@H](CCC(=O)O)NC(=O)[C@H](CC(N)=O)NC(=O)CNC(=O)[C@H](CO)NC(=O)[C@H](CC(N)=O)NC(=O)[C@@H](N)Cc1c[nH]c2ccccc12)C(=O)N[C@H](C(=O)N[C@@H](CC(=O)O)C(=O)N[C@@H](Cc1ccccc1)C(=O)N[C@@H](C)C(=O)NCC(=O)N[C@@H](CCCCN)C(=O)N[C@H](C(=O)O)[C@@H](C)O)[C@@H](C)O [NS3 345-359] | 1050 nM | – | 32 nM
16 | CC[C@H](C)[C@H](NC(=O)[C@H](CO)NC(=O)[C@H](C)N)C(=O)N[C@@H](C)C(=O)N[C@@H](C)C(=O)N[C@@H](CCCNC(=N)N)C(=O)NCC(=O)N[C@@H](Cc1ccc(O)cc1)C(=O)N[C@H](C(=O)N[C@@H](CO)C(=O)N[C@H](C(=O)N[C@@H](CCCNC(=N)N)C(=O)N[C@H](C(=O)NCC(=O)N[C@@H](CCSC)C(=O)O)C(C)C)[C@@H](C)O)[C@@H](C)CC [NS3 293-307] | 2670 nM | – | 18900 nM
17 | CC[C@H](C)[C@H](N)C(=O)N[C@@H](CO)C(=O)N[C@@H](Cc1ccc(O)cc1)C(=O)NCC(=O)NCC(=O)NCC(=O)N[C@@H](Cc1c[nH]c2ccccc12)C(=O)N[C@@H](CCCNC(=N)N)C(=O)N[C@@H](CC(C)C)C(=O)N[C@@H](CO)C(=O)N[C@@H](C)C(=O)N[C@@H](CCC(N)=O)C(=O)N[C@@H](Cc1c[nH]c2ccccc12)C(=O)N[C@@H](CCC(N)=O)C(=O)N[C@@H](CCCCN)C(=O)O [NS3 77-91] | 708 nM | – | 2020 nM
18 | CC[C@H](C)[C@H](NC(=O)[C@H](C)NC(=O)[C@H](CCC(=O)O)NC(=O)[C@H](CCCNC(=N)N)NC(=O)[C@@H](N)C(C)C)C(=O)N[C@@H](CCCCN)C(=O)N[C@@H](CCCNC(=N)N)C(=O)N[C@@H](CCCNC(=N)N)C(=O)N[C@@H](CC(C)C)C(=O)N[C@@H](CCCNC(=N)N)C(=O)N[C@H](C(=O)N[C@@H](CC(C)C)C(=O)N[C@H](C(=O)N[C@@H](CC(C)C)C(=O)N[C@@H](C)C(=O)O)[C@@H](C)CC)[C@@H](C)O [NS3 209-223] | 5.1 nM | – | 2610 nM
19 | CSCC[C@H](NC(=O)[C@@H](NC(=O)[C@@H](NC(=O)[C@@H](NC(=O)[C@H](CS)NC(=O)CNC(=O)CNC(=O)[C@H](Cc1c[nH]cn1)NC(=O)[C@H](CCC(=O)O)NC(=O)[C@H](CC(C)C)NC(=O)[C@@H](NC(=O)[C@@H](NC(=O)[C@H](CC(=O)O)NC(=O)[C@@H](N)C(C)C)C(C)C)C(C)C)C(C)C)[C@@H](C)O)[C@@H](C)O)C(=O)N[C@@H](C)C(=O)O [Envelope 21-35] | 4500 nM | – | –
20 | CC[C@H](C)[C@H](NC(=O)[C@@H](NC(=O)[C@H](CCSC)NC(=O)[C@H](CC(=O)O)NC(=O)[C@H](CO)NC(=O)[C@H](CCC(=O)O)NC(=O)[C@H](CC(C)C)NC(=O)[C@@H](NC(=O)CNC(=O)[C@H](CC(N)=O)NC(=O)[C@H](CO)NC(=O)[C@H](Cc1c[nH]c2ccccc12)NC(=O)[C@H](CC(C)C)NC(=O)[C@@H](NC(=O)[C@@H](N)Cc1c[nH]cn1)[C@@H](C)O)C(C)C)[C@@H](C)CC)C(=O)O [NS1 229-243] | 8080 nM | – | 733 nM

From article PMC3794980, “Identification of Conserved and HLA Promiscuous DENV3 T-Cell Epitopes” (PLoS Neglected Tropical Diseases, 2013)
